Molecules are shown by their SMILES.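 48-hour exposure; five concentrations; linearly interpolated endpoints. GI50 = concentration required for 50% inhibition of growth.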 Calls of active or inactive are those of the source. No stated cut-off is given here; in the data, active = GI50 up to about 1.1 µM and inactive = higher.

Some test systems named below: OVCAR-4; OVCAR-5; SN12C; RXF 393; A549; NCI-H460; OVCAR-8; 786-0; UACC-257; TK-10; NCI-H226; CCRF-CEM; A498; RPMI-8226; ACHN; HOP-92; HOP-62; NCI-H23; OVCAR-3.
Holding throughout (test): NCI-60 cell line screen, 48 h

As to `O=C1OC(=O)c2c1nc1ccccc1c2-c1ccccc1`, the GI50 with OVCAR-4, with OVCAR-5, in the experiment with SN12C, in the experiment on RXF 393, in the experiment on A549 and in the experiment with NCI-H460 was > 100 µM (inactive) throughout. Moreover, the GI50 with OVCAR-8, in the experiment on 786-0, in the experiment with UACC-257, in the experiment with TK-10, in the experiment on NCI-H226 and in the experiment on CCRF-CEM was > 100 µM (inactive) each time. Further, the GI50 in the experiment on A498, in the experiment with RPMI-8226, in the experiment on ACHN, in the experiment on HOP-92 and in the experiment with HOP-62 was > 100 µM (inactive) each time.
For `O=C1OC(Cl)C(N=P(c2ccccc2)(c2ccccc2)c2ccccc2)=C1Cl` (stereo not drawn), the GI50 in the experiment with OVCAR-4 is > 100 µM (inactive); in the experiment on NCI-H23, > 100 µM (inactive); with SN12C it was > 100 µM (inactive); in the experiment with A549 it was > 100 µM (inactive); with OVCAR-8 it was > 100 µM (inactive); with 786-0, 80.4 µM (inactive). Further, the GI50 with UACC-257, in the experiment with TK-10, with NCI-H226, with CCRF-CEM, in the experiment with OVCAR-3 and in the experiment on A498 was > 100 µM (inactive) each time. For the same molecule, the GI50 in the experiment with RPMI-8226, in the experiment on HOP-92 and in the experiment with HOP-62 was > 100 µM (inactive) each time.
On to `CC(C)c1cccc(C(C)C)c1NC(=O)C(=O)C(C(=O)c1ccc2ccccc2c1)C1OC(=O)c2ccccc21` (stereo not drawn), for which the GI50 with OVCAR-4 was > 100 µM (inactive); with NCI-H23, > 100 µM (inactive); with OVCAR-5, 26.9 µM (inactive); in the experiment on SN12C, > 100 µM (inactive); with RXF 393 it was 11 µM (inactive); in the experiment with A549, > 100 µM (inactive). For the same molecule, the GI50 was > 100 µM (inactive) with NCI-H460; > 10 µM (inactive) in the experiment with OVCAR-8; > 100 µM (inactive) with 786-0; > 100 µM (inactive) with UACC-257; 19.7 µM (inactive) in the experiment on NCI-H226; > 100 µM (inactive) in the experiment with CCRF-CEM. Further, the GI50 was > 100 µM (inactive) in the experiment with OVCAR-3; 34 µM (inactive) in the experiment on A498; > 100 µM (inactive) with RPMI-8226; > 100 µM (inactive) in the experiment with ACHN; 27.9 µM (inactive) in the experiment with HOP-92; 82.2 µM (inactive) in the experiment on HOP-62.
Regarding `COc1ccc(C2=Nn3c(nnc3-c3ccccc3)S/C2=C\c2ccc(-c3ccc([N+](=O)[O-])cc3)o2)cc1`, the GI50 with OVCAR-4 was 30 µM (inactive); in the experiment with OVCAR-5 it was 47.6 µM (inactive); in the experiment with SN12C it was 18.2 µM (inactive); with A549 it was 36.7 µM (inactive); in the experiment with NCI-H460, 27.4 µM (inactive); in the experiment on OVCAR-8, 30.5 µM (inactive). The GI50 in the experiment on 786-0 is 24.9 µM (inactive); in the experiment on UACC-257, 44.7 µM (inactive); with CCRF-CEM it was 5.7 µM (inactive); in the experiment on OVCAR-3 it was 23.3 µM (inactive); in the experiment with A498 it was 58.6 µM (inactive); in the experiment with RPMI-8226, 13.1 µM (inactive). Besides, the GI50 in the experiment on ACHN is 64.1 µM (inactive); with HOP-92 it was 54.8 µM (inactive); in the experiment on HOP-62, 52.4 µM (inactive).
In the case of `CC1(C)C(=O)CCC(=O)C(C)(C)C2=CC=C(O2)C(C)(C)C(=O)CCC(=O)C(C)(C)C2=CC=C1O2`, the GI50 in the experiment with OVCAR-4, with NCI-H23, with OVCAR-5, with RXF 393, with A549 and in the experiment with NCI-H460 was > 100 µM (inactive) in each case. The GI50 in the experiment with OVCAR-8, in the experiment on 786-0, in the experiment on UACC-257, in the experiment with TK-10, in the experiment with NCI-H226 and in the experiment on CCRF-CEM was > 100 µM (inactive) each time. Further, the GI50 in the experiment with OVCAR-3 is > 100 µM (inactive); with A498, > 100 µM (inactive); in the experiment on ACHN, > 100 µM (inactive); in the experiment on HOP-92 it was 76.9 µM (inactive); in the experiment on HOP-62, > 100 µM (inactive).
With `CCOC(=O)Cc1c(Cc2[nH]c(C(=O)OCc3ccccc3)c(CC(=O)OCC)c2CC(=O)OCC)[nH]c(C(=O)OCc2ccccc2)c1CC(=O)OCC`, the GI50 in the experiment on SN12C, in the experiment with A549, with OVCAR-8, in the experiment with 786-0, in the experiment with CCRF-CEM and with OVCAR-3 was > 100 µM (inactive) in each case. Besides, the GI50 in the experiment on A498, in the experiment with RPMI-8226, in the experiment on ACHN, in the experiment with HOP-92 and with HOP-62 was > 100 µM (inactive) each time.
As for `CSC(=S)N(C)NC(=O)c1cccc(C(=O)NN(C)C(=S)SC)n1`, the GI50 was 10.3 µM (inactive) in the experiment on OVCAR-4; 24.2 µM (inactive) in the experiment with NCI-H23; 4.88 µM (inactive) in the experiment with OVCAR-5; 22.2 µM (inactive) in the experiment on SN12C; 25.7 µM (inactive) with RXF 393; 14.8 µM (inactive) in the experiment with A549. Besides, the GI50 with NCI-H460 was 6.11 µM (inactive); in the experiment on OVCAR-8, 21.8 µM (inactive); in the experiment on 786-0 it was 19.4 µM (inactive); in the experiment with UACC-257 it was 7.48 µM (inactive); in the experiment on NCI-H226 it was 25.9 µM (inactive); in the experiment on CCRF-CEM it was 2.96 µM (inactive). The GI50 is 28.2 µM (inactive) in the experiment with A498; 10.3 µM (inactive) in the experiment with RPMI-8226; > 100 µM (inactive) with ACHN; 21.5 µM (inactive) in the experiment on HOP-92; 17.1 µM (inactive) in the experiment on HOP-62.
As to `CSc1cc(C(C)(C)C)ccc1C(O)c1ccc(C(C)(C)C)cc1SC`, the GI50 is 10.9 µM (inactive) with OVCAR-4; 8.49 µM (inactive) in the experiment on NCI-H23; 14 µM (inactive) in the experiment on OVCAR-5; 13.1 µM (inactive) in the experiment on SN12C; 12.1 µM (inactive) in the experiment with RXF 393; 10.6 µM (inactive) in the experiment with A549. Besides, the GI50 in the experiment with NCI-H460 is 8.2 µM (inactive); in the experiment with OVCAR-8 it was 11.4 µM (inactive); in the experiment on 786-0 it was 10.8 µM (inactive); in the experiment with UACC-257 it was 10.4 µM (inactive); with TK-10, 15.2 µM (inactive); in the experiment with NCI-H226 it was 12.9 µM (inactive). For the same molecule, the GI50 is 10.9 µM (inactive) in the experiment with CCRF-CEM; 12.4 µM (inactive) in the experiment on OVCAR-3; 13.2 µM (inactive) in the experiment with A498; 11.5 µM (inactive) with ACHN; 14.5 µM (inactive) with HOP-92; 13.5 µM (inactive) with HOP-62.
In the case of `NC(=O)NCc1c(C(N)=O)ncn1Cc1ccccc1`, the GI50 in the experiment with OVCAR-4, in the experiment with NCI-H23, in the experiment with SN12C, in the experiment on RXF 393, in the experiment with A549 and in the experiment on NCI-H460 was > 100 µM (inactive) in each case. The GI50 in the experiment on OVCAR-8, in the experiment on 786-0, in the experiment on UACC-257, in the experiment on TK-10, with CCRF-CEM and in the experiment with OVCAR-3 was > 100 µM (inactive) in each case. Moreover, the GI50 in the experiment with A498, in the experiment on RPMI-8226, in the experiment on ACHN, with HOP-92 and in the experiment on HOP-62 was > 100 µM (inactive) throughout.
As for `C=C1CC[C@@H]2C(C)(C)C(O)CCC2(C)C1COc1ccc2ccc(=O)oc2c1` (stereo partly drawn), the GI50 was 13.5 µM (inactive) with OVCAR-4; 18.6 µM (inactive) in the experiment on NCI-H23; 16.3 µM (inactive) with SN12C; 15.3 µM (inactive) with RXF 393; 17.2 µM (inactive) with A549; 10.5 µM (inactive) with NCI-H460. Also, the GI50 in the experiment with OVCAR-8 is 17.2 µM (inactive); with 786-0, 21.5 µM (inactive); with UACC-257, 18.6 µM (inactive); in the experiment with TK-10, 19.8 µM (inactive); in the experiment with NCI-H226 it was 18.8 µM (inactive); in the experiment with CCRF-CEM, 13.4 µM (inactive). Further, the GI50 in the experiment with OVCAR-3 was 17.9 µM (inactive); in the experiment on A498, 19.9 µM (inactive); in the experiment on RPMI-8226, 12.4 µM (inactive); in the experiment with ACHN, 16.8 µM (inactive); in the experiment on HOP-92, 17.3 µM (inactive); in the experiment with HOP-62, 19.1 µM (inactive).
With `Cc1cccc2cc3cccc(C(=O)NCCN(C)C)c3nc12`, the GI50 in the experiment with OVCAR-4 is 0.27 µM (active); in the experiment on NCI-H23 it was 0.171 µM (active); in the experiment on OVCAR-5 it was 0.292 µM (active); in the experiment on SN12C it was 0.063 µM (active); in the experiment on RXF 393, 0.269 µM (active); in the experiment with A549, 0.0171 µM (active). Besides, the GI50 in the experiment on NCI-H460 was < 0.01 µM (active); in the experiment on OVCAR-8 it was 0.0925 µM (active); in the experiment on 786-0 it was 0.129 µM (active); in the experiment on UACC-257, 0.245 µM (active); with TK-10, 0.317 µM (active); in the experiment on NCI-H226 it was 0.0638 µM (active). Besides, the GI50 with CCRF-CEM is 0.0575 µM (active); with OVCAR-3, 0.366 µM (active); with A498, 0.045 µM (active); with ACHN, 0.0257 µM (active); in the experiment with HOP-92 it was 0.185 µM (active); with HOP-62 it was 0.0745 µM (active).
With `CN(C)CCNc1nc(-c2cccs2)cc(-c2cccs2)n1`, the GI50 with OVCAR-4 was > 10 µM (inactive); in the experiment with NCI-H23, 10.5 µM (inactive); in the experiment with OVCAR-5, 9.18 µM (inactive); in the experiment with SN12C, 12.9 µM (inactive); with RXF 393, 14.6 µM (inactive); in the experiment with A549, 15.6 µM (inactive). The GI50 with NCI-H460 was 3.85 µM (inactive); in the experiment with OVCAR-8, 9.84 µM (inactive); in the experiment with 786-0 it was 15.2 µM (inactive); in the experiment with UACC-257, 11.6 µM (inactive); in the experiment with TK-10 it was 14.9 µM (inactive); in the experiment on NCI-H226, 15.9 µM (inactive). In addition, the GI50 in the experiment on CCRF-CEM was 4.41 µM (inactive); in the experiment on OVCAR-3, 22.6 µM (inactive); in the experiment on A498, 11.9 µM (inactive); in the experiment on HOP-92, 1.58 µM (inactive); in the experiment with HOP-62 it was 18.7 µM (inactive).

The values are drawn from ChEMBL document CHEMBL1201862, “PubChem BioAssay data set” (2004).
